Source: US20230111310A1, “CARBOXYLIC ACID DERIVATIVE-SUBSTITUTED IMINO ARYL COMPOUND, PREPARATION METHOD THEREFOR, HERBICIDAL COMPOSITION AND USE THEREOF” (Qingdao Kingagroot Chemical Compound Co., Ltd., priority 2020, published 2023)

What follows are compounds tested on Echinochloa crusgalli (assay: Weeding effect in post-emergence stage). Settings: Dose 15 g/ha; fresh weight control rate level.
Assay type: in vivo
Procedure, shortened: (§1)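 Post-emergence spray tower; 2-3 leaf plants (2 wk after sowing, soil pots, greenhouse). Formulation: acetone, Tween 80, methyl oleate EC 1.5 liter/ha as synergist, water. Rates 500–7.5 g/ha. Growth control rate read at 3 wk; n=3, averaged.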

Row | Compound | Weeding effect in post-emergence stage, Echinochloa crusgalli (level)
1 | COC(=O)CCCO/N=C/c1cc(-n2c(=O)cc(C(F)(F)F)n(C)c2=O)c(F)cc1Cl [Compound 485] | 5 (Level 5: growth control rate is above 85%)
2 | CCOC(=O)C(CC(F)(F)F)O/N=C/c1cc(-n2c(=O)cc(C(F)(F)F)n(C)c2=O)c(F)cc1Cl (stereo not drawn) [Compound 486] | 5 (Level 5: growth control rate is above 85%)
3 | C=CCC(O/N=C/c1cc(-n2c(=O)cc(C(F)(F)F)n(C)c2=O)c(F)cc1Cl)C(=O)OC (stereo not drawn) [Compound 487] | 5 (Level 5: growth control rate is above 85%)
4 | COC(=O)C(O/N=C/c1cc(-n2c(=O)cc(C(F)(F)F)n(C)c2=O)c(F)cc1Cl)C1CCC1 (stereo not drawn) [Compound 488] | 5 (Level 5: growth control rate is above 85%)
5 | COC(=O)C(O/N=C/c1cc(-n2c(=O)cc(C(F)(F)F)n(C)c2=O)c(F)cc1Cl)C1CCCC1 (stereo not drawn) [Compound 489] | 5 (Level 5: growth control rate is above 85%)
6 | COC(=O)C(O/N=C/c1cc(-n2c(=O)cc(C(F)(F)F)n(C)c2=O)c(F)cc1Cl)C1CCCCC1 (stereo not drawn) [Compound 490] | 5 (Level 5: growth control rate is above 85%)
7 | CCSC(=O)C(C)O/N=C/c1cc(-n2c(=O)n(C)c(=O)n(C)c2=O)c(F)cc1Cl (stereo not drawn) [Compound 491] | 5 (Level 5: growth control rate is above 85%)

What follows are compounds tested on Digitaria sanguinalis (assay: Weeding effect in post-emergence stage). Settings: Dose 15 g/ha; fresh weight control rate level.
Assay type: in vivo
Procedure, shortened: as §1

Row | Compound | Weeding effect in post-emergence stage, Digitaria sanguinalis (level)
8 | COC(=O)CCCO/N=C/c1cc(-n2c(=O)cc(C(F)(F)F)n(C)c2=O)c(F)cc1Cl [Compound 485] | 5 (Level 5: growth control rate is above 85%)
9 | CCOC(=O)C(CC(F)(F)F)O/N=C/c1cc(-n2c(=O)cc(C(F)(F)F)n(C)c2=O)c(F)cc1Cl (stereo not drawn) [Compound 486] | 5 (Level 5: growth control rate is above 85%)
10 | C=CCC(O/N=C/c1cc(-n2c(=O)cc(C(F)(F)F)n(C)c2=O)c(F)cc1Cl)C(=O)OC (stereo not drawn) [Compound 487] | 5 (Level 5: growth control rate is above 85%)
11 | COC(=O)C(O/N=C/c1cc(-n2c(=O)cc(C(F)(F)F)n(C)c2=O)c(F)cc1Cl)C1CCC1 (stereo not drawn) [Compound 488] | 5 (Level 5: growth control rate is above 85%)
12 | COC(=O)C(O/N=C/c1cc(-n2c(=O)cc(C(F)(F)F)n(C)c2=O)c(F)cc1Cl)C1CCCC1 (stereo not drawn) [Compound 489] | 5 (Level 5: growth control rate is above 85%)
13 | COC(=O)C(O/N=C/c1cc(-n2c(=O)cc(C(F)(F)F)n(C)c2=O)c(F)cc1Cl)C1CCCCC1 (stereo not drawn) [Compound 490] | 5 (Level 5: growth control rate is above 85%)
14 | CCSC(=O)C(C)O/N=C/c1cc(-n2c(=O)n(C)c(=O)n(C)c2=O)c(F)cc1Cl (stereo not drawn) [Compound 491] | 5 (Level 5: growth control rate is above 85%)

These compounds were tested on Eleusine indica (assay: Weeding effect in post-emergence stage). Settings: Dose 15 g/ha; fresh weight control rate level.
Assay type: in vivo
Procedure, shortened: as §1

Row | Compound | Weeding effect in post-emergence stage, Eleusine indica (level)
15 | COC(=O)CCCO/N=C/c1cc(-n2c(=O)cc(C(F)(F)F)n(C)c2=O)c(F)cc1Cl [Compound 485] | 5 (Level 5: growth control rate is above 85%)
16 | CCOC(=O)C(CC(F)(F)F)O/N=C/c1cc(-n2c(=O)cc(C(F)(F)F)n(C)c2=O)c(F)cc1Cl (stereo not drawn) [Compound 486] | 5 (Level 5: growth control rate is above 85%)
17 | C=CCC(O/N=C/c1cc(-n2c(=O)cc(C(F)(F)F)n(C)c2=O)c(F)cc1Cl)C(=O)OC (stereo not drawn) [Compound 487] | 5 (Level 5: growth control rate is above 85%)
18 | COC(=O)C(O/N=C/c1cc(-n2c(=O)cc(C(F)(F)F)n(C)c2=O)c(F)cc1Cl)C1CCC1 (stereo not drawn) [Compound 488] | 5 (Level 5: growth control rate is above 85%)
19 | COC(=O)C(O/N=C/c1cc(-n2c(=O)cc(C(F)(F)F)n(C)c2=O)c(F)cc1Cl)C1CCCC1 (stereo not drawn) [Compound 489] | 5 (Level 5: growth control rate is above 85%)
20 | COC(=O)C(O/N=C/c1cc(-n2c(=O)cc(C(F)(F)F)n(C)c2=O)c(F)cc1Cl)C1CCCCC1 (stereo not drawn) [Compound 490] | 5 (Level 5: growth control rate is above 85%)
21 | CCSC(=O)C(C)O/N=C/c1cc(-n2c(=O)n(C)c(=O)n(C)c2=O)c(F)cc1Cl (stereo not drawn) [Compound 491] | 5 (Level 5: growth control rate is above 85%)

Each compound was assayed on Alopecurus japonicus (assay: Weeding effect in post-emergence stage). Settings: Dose 15 g/ha; fresh weight control rate level.
Assay type: in vivo
Procedure, shortened: as §1

Row | Compound | Weeding effect in post-emergence stage, Alopecurus japonicus (level)
22 | COC(=O)CCCO/N=C/c1cc(-n2c(=O)cc(C(F)(F)F)n(C)c2=O)c(F)cc1Cl [Compound 485] | 5 (Level 5: growth control rate is above 85%)
23 | CCOC(=O)C(CC(F)(F)F)O/N=C/c1cc(-n2c(=O)cc(C(F)(F)F)n(C)c2=O)c(F)cc1Cl (stereo not drawn) [Compound 486] | 5 (Level 5: growth control rate is above 85%)
24 | C=CCC(O/N=C/c1cc(-n2c(=O)cc(C(F)(F)F)n(C)c2=O)c(F)cc1Cl)C(=O)OC (stereo not drawn) [Compound 487] | 5 (Level 5: growth control rate is above 85%)
25 | COC(=O)C(O/N=C/c1cc(-n2c(=O)cc(C(F)(F)F)n(C)c2=O)c(F)cc1Cl)C1CCC1 (stereo not drawn) [Compound 488] | 5 (Level 5: growth control rate is above 85%)
26 | COC(=O)C(O/N=C/c1cc(-n2c(=O)cc(C(F)(F)F)n(C)c2=O)c(F)cc1Cl)C1CCCC1 (stereo not drawn) [Compound 489] | 5 (Level 5: growth control rate is above 85%)
27 | COC(=O)C(O/N=C/c1cc(-n2c(=O)cc(C(F)(F)F)n(C)c2=O)c(F)cc1Cl)C1CCCCC1 (stereo not drawn) [Compound 490] | 5 (Level 5: growth control rate is above 85%)
28 | CCSC(=O)C(C)O/N=C/c1cc(-n2c(=O)n(C)c(=O)n(C)c2=O)c(F)cc1Cl (stereo not drawn) [Compound 491] | 5 (Level 5: growth control rate is above 85%)

What follows are compounds tested on Setaria viridis (assay: Weeding effect in post-emergence stage). Settings: Dose 15 g/ha; fresh weight control rate level.
Assay type: in vivo
Procedure, shortened: as §1

Row | Compound | Weeding effect in post-emergence stage, Setaria viridis (level)
29 | COC(=O)CCCO/N=C/c1cc(-n2c(=O)cc(C(F)(F)F)n(C)c2=O)c(F)cc1Cl [Compound 485] | 5 (Level 5: growth control rate is above 85%)
30 | CCOC(=O)C(CC(F)(F)F)O/N=C/c1cc(-n2c(=O)cc(C(F)(F)F)n(C)c2=O)c(F)cc1Cl (stereo not drawn) [Compound 486] | 5 (Level 5: growth control rate is above 85%)
31 | C=CCC(O/N=C/c1cc(-n2c(=O)cc(C(F)(F)F)n(C)c2=O)c(F)cc1Cl)C(=O)OC (stereo not drawn) [Compound 487] | 5 (Level 5: growth control rate is above 85%)
32 | COC(=O)C(O/N=C/c1cc(-n2c(=O)cc(C(F)(F)F)n(C)c2=O)c(F)cc1Cl)C1CCC1 (stereo not drawn) [Compound 488] | 5 (Level 5: growth control rate is above 85%)
33 | COC(=O)C(O/N=C/c1cc(-n2c(=O)cc(C(F)(F)F)n(C)c2=O)c(F)cc1Cl)C1CCCC1 (stereo not drawn) [Compound 489] | 5 (Level 5: growth control rate is above 85%)
34 | COC(=O)C(O/N=C/c1cc(-n2c(=O)cc(C(F)(F)F)n(C)c2=O)c(F)cc1Cl)C1CCCCC1 (stereo not drawn) [Compound 490] | 5 (Level 5: growth control rate is above 85%)
35 | CCSC(=O)C(C)O/N=C/c1cc(-n2c(=O)n(C)c(=O)n(C)c2=O)c(F)cc1Cl (stereo not drawn) [Compound 491] | 5 (Level 5: growth control rate is above 85%)

These compounds were tested on Abutilon theophrasti (assay: Weeding effect in post-emergence stage). Settings: Dose 15 g/ha; fresh weight control rate level.
Assay type: in vivo
Procedure, shortened: as §1

Row | Compound | Weeding effect in post-emergence stage, Abutilon theophrasti (level)
36 | COC(=O)CCCO/N=C/c1cc(-n2c(=O)cc(C(F)(F)F)n(C)c2=O)c(F)cc1Cl [Compound 485] | 5 (Level 5: growth control rate is above 85%)
37 | CCOC(=O)C(CC(F)(F)F)O/N=C/c1cc(-n2c(=O)cc(C(F)(F)F)n(C)c2=O)c(F)cc1Cl (stereo not drawn) [Compound 486] | 5 (Level 5: growth control rate is above 85%)
38 | C=CCC(O/N=C/c1cc(-n2c(=O)cc(C(F)(F)F)n(C)c2=O)c(F)cc1Cl)C(=O)OC (stereo not drawn) [Compound 487] | 5 (Level 5: growth control rate is above 85%)
39 | COC(=O)C(O/N=C/c1cc(-n2c(=O)cc(C(F)(F)F)n(C)c2=O)c(F)cc1Cl)C1CCC1 (stereo not drawn) [Compound 488] | 5 (Level 5: growth control rate is above 85%)
40 | COC(=O)C(O/N=C/c1cc(-n2c(=O)cc(C(F)(F)F)n(C)c2=O)c(F)cc1Cl)C1CCCC1 (stereo not drawn) [Compound 489] | 5 (Level 5: growth control rate is above 85%)
41 | COC(=O)C(O/N=C/c1cc(-n2c(=O)cc(C(F)(F)F)n(C)c2=O)c(F)cc1Cl)C1CCCCC1 (stereo not drawn) [Compound 490] | 5 (Level 5: growth control rate is above 85%)
42 | CCSC(=O)C(C)O/N=C/c1cc(-n2c(=O)n(C)c(=O)n(C)c2=O)c(F)cc1Cl (stereo not drawn) [Compound 491] | 5 (Level 5: growth control rate is above 85%)
